According to article PMC3494675, “Structure-Function Analysis of the Glioma Targeting NFL-TBS.40-63 Peptide Corresponding to the Tubulin-Binding Site on the Light Neurofilament Subunit” (PLoS ONE, 2012):
Peptide text beside a SMILES is read from it. * marks the point of attachment. Biotin = O=C1N[C@H]2[C@H](CS[C@H]2CCCCC(=O)*)N1

Key:
[1] = tested on: T98G human glioblastoma cells; assay: Peptide incorporation into T98G cells (immunocytochemistry, cell counting); assay type: cell-based; settings: 6 hours; for Cell penetration / internalization in T98G cells (in words): 10 µM, immunocytochemistry, compared to original NFL-TBS.40-63; for Peptide incorporation (% of cells): T98G cells, 10 µM biotinylated peptide, Alexa-labeled avidin/streptavidin fluorescence microscopy, minimum 200 cells per experiment, mean ± S.E.M., triplicated
Method: (§1) Cells containing the biotinylated peptide were detected using Alexa-labeled avidin (green fluorescence) and those displaying a normal or a destroyed MT network were detected with an anti-tubulin antibody (red fluorescence) ( Figure 1A-B ). Then, we counted a minimum of 200 cells per slide containing or not the peptide, and with a normal or destroyed microtubule network ( Figure 1C ). As illustrated on Figure 1A glioblastoma cells contain a rich MT network. […] Cells were plated on cover slips and cultured in media containing biotinylated peptides (10 μM) for 6 hours. […] The cells were then incubated during 10 min in a 0.5% triton X-100 permeabilization solution, and washed 3 times in PBS. Next, they were incubated in a blocking solution (PBS 5% BSA) for 15 min, then incubated with mouse anti-ß-tubulin antibody (Sigma) 1/200 overnight. Tubulin and biotinylated peptides were localized using respectively Alexa 568 nm anti-mouse antibody and streptavidin Alexa 488 nm (Molecular Probes) 1/200 for 1 hour, followed by washing in PBS. […] Sigma) for 5 min, washed twice with PBS, then cover slips were mounted with an antifading solution. Observations were performed with an Olympus confocal microscope (BX50) using Fluoview.3.1. Software or a Leica DMI6000 inverted microscope and analyzed with Metamorph 7.1.7.0. software. We counted cells containing the peptide and cells displaying a destroyed MT network. Experiments were repeated at least three times, and a minimum of 200 cells was scored during each experiment.

[2] = tested on: T98G human glioblastoma cells; assay: Disintegration of the microtubule network in T98G cells (anti-tubulin immunostaining, cell counting); assay type: cell-based; settings: 6 hours; for Disintegration of MT (% of cells): T98G cells, 10 µM biotinylated peptide, anti-tubulin immunostaining, minimum 200 cells per experiment, mean ± S.E.M., triplicated
Method: as §1

Structure (SMILES) | Cell penetration / internalization in T98G cells (in words) [1] | Peptide incorporation (% of cells) [1] | Disintegration of MT (% of cells) [2] | Effect on MT network of T98G / glioma cells (in words) ([2]; 10 µM, immunocytochemistry)
CC(C)C[C@H](NC(=O)[C@H](CO)NC(=O)[C@H](CO)NC(=O)[C@H](CO)NC(=O)[C@@H](NC(=O)[C@@H]1CCCN1C(=O)[C@H](C)NC(=O)[C@H](CO)NC(=O)[C@H](Cc1ccc(O)cc1)NC(=O)[C@H](CO)NC(=O)[C@H](CO)NC(=O)[C@H](Cc1ccc(O)cc1)NC(=O)CCCC[C@@H]1SC[C@@H]2NC(=O)N[C@@H]21)C(C)C)C(=O)N[C@@H](CO)C(=O)N[C@H](C(=O)N[C@@H](CCCNC(=N)N)C(=O)N[C@@H](CCCNC(=N)N)C(=O)N[C@@H](CO)C(=O)N[C@@H](Cc1ccc(O)cc1)C(=O)N[C@@H](CO)C(=O)N[C@@H](CO)C(=O)N[C@@H](CO)C(=O)N[C@@H](CO)C(=O)N[C@@H](C)C(=O)N[C@@H](CO)C(N)=O)C(C)C [Gly23Ala] (Biotin-YSSYSAPVSSSLSVRRSYSSSSAS-NH2) | only weak cell-penetrating activity | 6.2±6.2 % of cells | 16.9±4.5 % of cells | 
CC(C)C[C@H](NC(=O)[C@H](CO)NC(=O)[C@H](CC(C)C)NC(=O)[C@H](CO)NC(=O)[C@H](CO)NC(=O)[C@H](CO)NC(=O)[C@@H](NC(=O)[C@@H]1CCCN1C(=O)[C@H](C)NC(=O)[C@H](CO)NC(=O)[C@H](Cc1ccc(O)cc1)NC(=O)[C@H](CO)NC(=O)[C@H](CO)NC(=O)[C@H](Cc1ccc(O)cc1)NC(=O)CCCC[C@@H]1SC[C@@H]2NC(=O)N[C@@H]21)C(C)C)C(=O)N[C@@H](CCCNC(=N)N)C(=O)N[C@@H](CCCNC(=N)N)C(=O)N[C@@H](CO)C(=O)N[C@@H](Cc1ccc(O)cc1)C(=O)N[C@@H](CO)C(=O)N[C@@H](CO)C(=O)N[C@@H](CO)C(=O)N[C@@H](CO)C(=O)NCC(=O)N[C@@H](CO)C(N)=O [Val14Leu] (Biotin-YSSYSAPVSSSLSLRRSYSSSSGS-NH2) |  | 44.2±2.2 % of cells | 39.2±2.4 % of cells | 
CC(C)C[C@H](NC(=O)[C@H](CO)NC(=O)[C@H](CO)NC(=O)[C@H](CO)NC(=O)[C@@H](NC(=O)[C@@H]1CCCN1C(=O)[C@H](C)NC(=O)[C@H](CO)NC(=O)[C@H](Cc1ccc(O)cc1)NC(=O)[C@H](CO)NC(=O)[C@H](CO)NC(=O)[C@H](Cc1ccc(O)cc1)NC(=O)CCCC[C@@H]1SC[C@@H]2NC(=O)N[C@@H]21)C(C)C)C(=O)N[C@@H](CO)C(=O)N[C@H](C(=O)N[C@@H](CCCNC(=N)N)C(=O)N[C@@H](CCCNC(=N)N)C(=O)N[C@@H](CO)C(=O)N[C@@H](Cc1ccc(O)cc1)C(=O)N[C@@H](CO)C(=O)N[C@@H](C)C(=O)N[C@@H](CO)C(=O)N[C@@H](CO)C(=O)NCC(=O)N[C@@H](CO)C(N)=O)C(C)C [Ser20Ala] (Biotin-YSSYSAPVSSSLSVRRSYSASSGS-NH2) |  | 6.4±1.2 % of cells | 16.4±6.4 % of cells | 
CC(C)C[C@H](NC(=O)[C@H](CO)NC(=O)[C@H](C)NC(=O)[C@H](CO)NC(=O)[C@@H](NC(=O)[C@@H]1CCCN1C(=O)[C@H](C)NC(=O)[C@H](CO)NC(=O)[C@H](Cc1ccc(O)cc1)NC(=O)[C@H](CO)NC(=O)[C@H](CO)NC(=O)[C@H](Cc1ccc(O)cc1)NC(=O)CCCC[C@@H]1SC[C@@H]2NC(=O)N[C@@H]21)C(C)C)C(=O)N[C@@H](CO)C(=O)N[C@H](C(=O)N[C@@H](CCCNC(=N)N)C(=O)N[C@@H](CCCNC(=N)N)C(=O)N[C@@H](CO)C(=O)N[C@@H](Cc1ccc(O)cc1)C(=O)N[C@@H](CO)C(=O)N[C@@H](CO)C(=O)N[C@@H](CO)C(=O)N[C@@H](CO)C(=O)NCC(=O)N[C@@H](CO)C(N)=O)C(C)C [Ser10Ala] (Biotin-YSSYSAPVSASLSVRRSYSSSSGS-NH2) | penetrated in cells significantly although to a much lesser extent than the wt peptide | 34.5±0 % of cells | 32.9±1.9 % of cells | 
CC(C)C[C@H](NC(=O)[C@H](C)NC(=O)[C@H](CO)NC(=O)[C@H](CO)NC(=O)[C@@H](NC(=O)[C@@H]1CCCN1C(=O)[C@H](C)NC(=O)[C@H](CO)NC(=O)[C@H](Cc1ccc(O)cc1)NC(=O)[C@H](CO)NC(=O)[C@H](CO)NC(=O)[C@H](Cc1ccc(O)cc1)NC(=O)CCCC[C@@H]1SC[C@@H]2NC(=O)N[C@@H]21)C(C)C)C(=O)N[C@@H](CO)C(=O)N[C@H](C(=O)N[C@@H](CCCNC(=N)N)C(=O)N[C@@H](CCCNC(=N)N)C(=O)N[C@@H](CO)C(=O)N[C@@H](Cc1ccc(O)cc1)C(=O)N[C@@H](CO)C(=O)N[C@@H](CO)C(=O)N[C@@H](CO)C(=O)N[C@@H](CO)C(=O)NCC(=O)N[C@@H](CO)C(N)=O)C(C)C [Ser11Ala] (Biotin-YSSYSAPVSSALSVRRSYSSSSGS-NH2) |  | 2.5±2.5 % of cells | 15.9±6.5 % of cells | 
CC(C)C[C@H](NC(=O)[C@H](CO)NC(=O)[C@H](CO)NC(=O)[C@H](CO)NC(=O)[C@@H](NC(=O)[C@@H]1CCCN1C(=O)[C@H](C)NC(=O)[C@H](CO)NC(=O)[C@H](Cc1ccc(O)cc1)NC(=O)[C@H](CO)NC(=O)[C@H](CO)NC(=O)[C@H](Cc1ccc(O)cc1)NC(=O)CCCC[C@@H]1SC[C@@H]2NC(=O)N[C@@H]21)C(C)C)C(=O)N[C@@H](CO)C(=O)N[C@H](C(=O)N[C@@H](CCCNC(=N)N)C(=O)N[C@@H](CCCNC(=N)N)C(=O)N[C@@H](CO)C(=O)N[C@@H](Cc1ccc(O)cc1)C(=O)N[C@@H](C)C(=O)N[C@@H](CO)C(=O)N[C@@H](CO)C(=O)N[C@@H](CO)C(=O)NCC(=O)N[C@@H](CO)C(N)=O)C(C)C [Ser19Ala] (Biotin-YSSYSAPVSSSLSVRRSYASSSGS-NH2) |  | 5.2±0.7 % of cells | 14.5±2.7 % of cells | 
CC(C)C[C@H](NC(=O)[C@H](CO)NC(=O)[C@H](CO)NC(=O)[C@H](CO)NC(=O)[C@@H](NC(=O)[C@@H]1CCCN1C(=O)[C@H](C)NC(=O)[C@H](CO)NC(=O)[C@H](Cc1ccc(O)cc1)NC(=O)[C@H](CO)NC(=O)[C@H](CO)NC(=O)[C@H](Cc1ccc(O)cc1)NC(=O)CCCC[C@@H]1SC[C@@H]2NC(=O)N[C@@H]21)C(C)C)C(=O)N[C@@H](CO)C(=O)N[C@H](C(=O)N[C@@H](CCCNC(=N)N)C(=O)N[C@@H](CCCNC(=N)N)C(=O)N[C@@H](CO)C(=O)N[C@@H](Cc1ccc(O)cc1)C(=O)N[C@@H](CO)C(=O)N[C@@H](CO)C(=O)N[C@@H](CO)C(=O)N[C@@H](CO)C(=O)NCC(=O)N[C@@H](CO)C(N)=O)C(C)C [Ala6Ala] (Biotin-YSSYSAPVSSSLSVRRSYSSSSGS-NH2) |  | 50.3±4.6 % of cells | 48.1±6.6 % of cells | 
CC(C)C[C@H](NC(=O)[C@H](CO)NC(=O)[C@H](CO)NC(=O)[C@H](CO)NC(=O)[C@@H](NC(=O)[C@@H]1CCCN1C(=O)[C@H](C)NC(=O)[C@H](CO)NC(=O)[C@H](Cc1ccc(O)cc1)NC(=O)[C@H](CO)NC(=O)[C@H](CO)NC(=O)[C@H](Cc1ccc(O)cc1)NC(=O)CCCC[C@@H]1SC[C@@H]2NC(=O)N[C@@H]21)C(C)C)C(=O)N[C@@H](CO)C(=O)N[C@H](C(=O)N[C@@H](CCCNC(=N)N)C(=O)N[C@@H](CCCNC(=N)N)C(=O)N[C@@H](CO)C(=O)N[C@@H](Cc1ccc(O)cc1)C(=O)N[C@@H](CC(=O)O)C(=O)N[C@@H](CO)C(=O)N[C@@H](CO)C(=O)N[C@@H](CO)C(=O)NCC(=O)N[C@@H](CO)C(N)=O)C(C)C [Ser19Asp] (Biotin-YSSYSAPVSSSLSVRRSYDSSSGS-NH2) | decreased internalization | 25.2±4.8 % of cells | 19.2±1.5 % of cells | not altered
CC(C)C[C@H](NC(=O)[C@H](CO)NC(=O)[C@H](CO)NC(=O)[C@H](CO)NC(=O)[C@@H](NC(=O)[C@@H]1CCCN1C(=O)[C@H](C)NC(=O)[C@H](CO)NC(=O)[C@H](Cc1ccc(O)cc1)NC(=O)[C@H](CO)NC(=O)[C@H](CO)NC(=O)[C@H](Cc1ccc(O)cc1)NC(=O)CCCC[C@@H]1SC[C@@H]2NC(=O)N[C@@H]21)C(C)C)C(=O)N[C@@H](CO)C(=O)N[C@H](C(=O)N[C@@H](CCCNC(=N)N)C(=O)N[C@@H](CCCNC(=N)N)C(=O)N[C@@H](CO)C(=O)N[C@@H](Cc1ccc(O)cc1)C(=O)N[C@@H](CO)C(=O)N[C@@H](CO)C(=O)N[C@@H](CO)C(=O)N[C@@H](CO)C(=O)NCC(=O)N[C@@H](C)C(N)=O)C(C)C [Ser24Ala] (Biotin-YSSYSAPVSSSLSVRRSYSSSSGA-NH2) |  | 44.3±6.7 % of cells | 29.4±0.6 % of cells | 
